Each structure is given as a SMILES string.

One data set has as its target T1, VCB protein (Homo sapiens, UniProt P40337).
T1 construct: A plasmid containing pVHL54–213 with an N-terminal His6 tag; His6 (N, cleaved yes); made in house; host or cells: Escherichia coli BL21 (DE3)
Kind of data set: Competitive fluorescence polarization (FP) binding assay, displacement of FAM-labeled HIF-1α peptide. As to conditions: for Kd: dissociation constant, determined by FP, mean ± S.E.M., back-calculated from IC50; for IC50: mean IC50 values obtained from the FP assay, read-out: IC50 ± S.E.M, FP assay. On the procedure: Binding of a ligand to the HIF binding site of VHL displaces a fluorescein-labeled, 19-mer HIF-1α oligopeptide, leading to a change in polarization of emitted light upon excitation of the competing fluorescent probe.
All components were dissolved from stock solutions using 100 mM Bis–Tris, 100 mM NaCl, 1 mM DTT, pH 7.0, to yield a final assay volume of 15 μL. DMSO was added as appropriate to ensure a final concentration of 2% (v/v). Control wells containing VCB and JC9 with no compound (zero displacement), or JC9, in the absence of protein (maximum displacement) were also included to allow for normalization. Percentage displacement values were obtained by normalization of controls and were plotted against log[compound]. The IC50 values were determined for each titration using non-linear regression analysis with Prism GraphPad (Table S1). Dissociation constants Kd for the compound–VCB interaction were back-calculated from the measured IC50 values by using a displacement binding model as described.[16],[64]

Data set [1] in a line: Log D7.4 measurement by chromatographic method. The class given is physicochemical. As to conditions: experimental distribution coefficient at pH 7.4; read-out: e log D7.4. On the procedure: (§1) Both were experimentally obtained employing HPLC-based protocols.[39],[40] […] PPB values were determined in view of how they could impact future pharmacokinetic studies of compounds as VHL inhibitors, or once conjugated into bifunctional PROTACs, for which PPB can be a limiting factor.
The determination of the log D7.4 values was performed by a chromatographic method as described previously.[41],[62] […] Subsequently, the mean retention times (n = 2) of the analytes were taken to calculate their log D7.4 values.

The target in the next data set is human serum albumin (Homo sapiens, UniProt P02768). Kind of data set: PPB studies on HSA HPLC column. The class given is in vitro ADME. As to conditions: CHIRALPAK HSA HPLC column (human serum albumin); experimentally determined percentage of the compound bound to human serum albumin. On the procedure:
as §1
PPB was estimated by correlating the logarithmic retention times of the analytes on a […] HSA 50 × 3 mm, 5 μm column with the literature-known % PPB values (converted into log K values) of the following drugs: warfarin, ketoprofen, budesonide, nizatidine, indomethacin, acetylsalicylic acid, carbamazepine, piroxicam, nicardipine, and cimetidine.[63] Samples were dissolved in MeCN/DMSO 9:1 to achieve a final concentration of 0.5 mg/mL. The mobile phase A was 50 mM ammonium acetate adjusted to pH 7.4 with 10% NaOH, while mobile phase B was iPrOH. […] After injecting 3 μL of the sample, a linear gradient from 100% A to 30% iPrOH in 5.4 min was applied. From 5.4 to 18 min, 30% iPrOH was kept, followed by switching back to 100% A in 1.0 min and a re-equilibration time of 6 min.

Take `Cc1ncsc1-c1ccc(CNC(=O)[C@@H]2C[C@@H](O)CN2C(=O)[C@@H](NC(=O)C2(C#N)CC2)C(C)(C)C)c(Cl)c1` [Compound 5, (2S,4R)-N-(2-Chloro-4-(4-methylthiazol-5-yl)benzyl)-1-((S)-2-(1-cyanocyclopropane-1-carboxamido)-3,3-dimethylbutanoyl)-4-hydroxypyrrolidine-2-carboxamide]: on VCB protein, the Kd was 245 ± 20 nM and the IC50 came out at 1140 ± 131 nM. Also, the chromatographic logD in data set [1] turned out to be 2.2. Moreover, the fraction unbound at 0.5 mg/mL on human serum albumin was found to be 0.09.
As to `Cc1ncsc1-c1cc(Cl)c(CNC(=O)[C@@H]2C[C@@H](O)CN2C(=O)[C@@H](NC(=O)C2(C#N)CC2)C(C)(C)C)c(Cl)c1` [Compound 13, (2S,4R)-1-((S)-2-(1-Cyanocyclopropane-1-carboxamido)-3,3-dimethylbutanoyl)-N-(2,6-dichloro-4-(4-methylthiazol-5-yl)benzyl)-4-hydroxypyrrolidine-2-carboxamide], at VCB protein, the Kd is 8150 ± 680 nM and the IC50 came out at 42000 ± 1920 nM. Further, in data set [1], the chromatographic logD is 2.4. Moreover, the fraction unbound at 0.5 mg/mL at human serum albumin turned out to be 0.09.
On to `Cc1cc(-c2scnc2C)cc(C)c1CNC(=O)[C@@H]1C[C@@H](O)CN1C(=O)[C@@H](NC(=O)C1(C#N)CC1)C(C)(C)C` [Compound 10, (2S,4R)-1-((S)-2-(1-Cyanocyclopropane-1-carboxamido)-3,3-dimethylbutanoyl)-N-(2,6-dimethyl-4-(4-methylthiazol-5-yl)benzyl)-4-hydroxypyrrolidine-2-carboxamide], for which, on VCB protein, the Kd was 4110 ± 560 nM and the 50% inhibitory concentration (IC50) amounted to 21100 ± 2180 nM. For the same compound, the chromatographic logD in data set [1] was 2.2. This compound also had a fraction unbound at 0.5 mg/mL at human serum albumin of 0.1.
`Cc1ncsc1-c1ccc(CNC(=O)[C@@H]2C[C@@H](O)CN2C(=O)[C@@H](NC(=O)C2(C#N)CC2)C(C)(C)C)cc1Cl` [Compound 9, (2S,4R)-N-(3-Chloro-4-(4-methylthiazol-5-yl)benzyl)-1-((S)-2-(1-cyanocyclopropane-1-carboxamido)-3,3-dimethylbutanoyl)-4-hydroxypyrrolidine-2-carboxamide]: at VCB protein, the equilibrium dissociation constant (Kd) is 220 ± 11 nM and the IC50 worked out at 1030 ± 127 nM. Moreover, in data set [1], the chromatographic logD was 2.1. Besides, the fraction unbound at 0.5 mg/mL on human serum albumin is 0.09.
Consider `COc1cc(CNC(=O)[C@@H]2C[C@@H](O)CN2C(=O)[C@@H](NC(=O)C2(C#N)CC2)C(C)(C)C)ccc1-c1scnc1C` [Compound 7, (2S,4R)-1-((S)-2-(1-Cyanocyclopropane-1-carboxamido)-3,3-dimethylbutanoyl)-4-hydroxy-N-(3-methoxy-4-(4-methylthiazol-5-yl)benzyl)pyrrolidine-2-carboxamide], for which, at VCB protein, the dissociation constant (Kd) was 163 ± 22 nM and the IC50 was determined as 742 ± 14 nM. The chromatographic logD in data set [1] amounted to 1.9. For the same compound, the unbound share (fraction unbound) at 0.5 mg/mL at human serum albumin is 0.13.
On to `Cc1ncsc1-c1cc2c(cc1F)[C@@H](NC(=O)[C@@H]1C[C@@H](O)CN1C(=O)[C@@H](NC(=O)C1(F)CC1)C(C)(C)C)CCC2` [Compound 37, (2S,4R)-N-((S)-7-Fluoro-6-(4-methylthiazol-5-yl)-1,2,3,4-tetrahydronaphthalen-1-yl)-1-((S)-2-(1-fluorocyclopropane-1-carboxamido)-3,3-dimethylbutanoyl)-4-hydroxypyrrolidine-2-carboxamide], for which, at VCB protein, the equilibrium dissociation constant (Kd) was 1040 ± 240 nM and the IC50 stood at 4400 ± 1060 nM. Further, in data set [1], the chromatographic logD is 2.6. The unbound share (fraction unbound) at 0.5 mg/mL on human serum albumin was 0.08.
The matching figures for `Cc1ncsc1-c1cc(Cl)c(CNC(=O)[C@@H]2C[C@@H](O)CN2C(=O)[C@@H](NC(=O)C2(C#N)CC2)C(C)(C)C)cc1Cl` [Compound 17, (2S,4R)-1-((S)-2-(1-Cyanocyclopropane-1-carboxamido)-3,3-dimethylbutanoyl)-N-(2,5-dichloro-4-(4-methylthiazol-5-yl)benzyl)-4-hydroxypyrrolidine-2-carboxamide]: 883 ± 68 nM, 4560 ± 208 nM, 2.5 and 0.07.
The matching figures for `Cc1cc(-c2scnc2C)ccc1[C@H](C)NC(=O)[C@@H]1C[C@@H](O)CN1C(=O)[C@@H](NC(=O)C1(C#N)CC1)C(C)(C)C` [Compound 24, (2S,4R)-1-((S)-2-(1-Cyanocyclopropane-1-carboxamido)-3,3-dimethylbutanoyl)-4-hydroxy-N-((S)-1-(2-methyl-4-(4-methylthiazol-5-yl)phenyl)ethyl)pyrrolidine-2-carboxamide]: 86 ± 20 nM, 329 ± 51 nM, 2.3 and 0.12.
On to `Cc1cc(-c2scnc2C)c(C)cc1CNC(=O)[C@@H]1C[C@@H](O)CN1C(=O)[C@@H](NC(=O)C1(C#N)CC1)C(C)(C)C` [Compound 14, (2S,4R)-1-((S)-2-(1-Cyanocyclopropane-1-carboxamido)-3,3-dimethylbutanoyl)-N-(2,5-dimethyl-4-(4-methylthiazol-5-yl)benzyl)-4-hydroxypyrrolidine-2-carboxamide], for which, at VCB protein, the Kd was 528 ± 16 nM and the IC50 worked out at 2740 ± 122 nM. In addition, in data set [1], the chromatographic logD was 2.2. The fraction unbound at 0.5 mg/mL at human serum albumin is 0.1.
Taken in the same sequence, the figures for `Cc1ncsc1-c1ccc(CNC(=O)[C@@H]2C[C@@H](O)CN2C(=O)[C@@H](NC(=O)C2(C#N)CC2)C(C)(C)C)cc1F` [Compound 8, (2S,4R)-1-((S)-2-(1-Cyanocyclopropane-1-carboxamido)-3,3-dimethylbutanoyl)-N-(3-fluoro-4-(4-methylthiazol-5-yl)benzyl)-4-hydroxypyrrolidine-2-carboxamide] were 97 ± 11 nM, 444 ± 18 nM, 1.9 and 0.12.
In the case of `Cc1cc(CNC(=O)[C@@H]2C[C@@H](O)CN2C(=O)[C@@H](NC(=O)C2(C#N)CC2)C(C)(C)C)ccc1-c1scnc1C` [Compound 6, (2S,4R)-1-((S)-2-(1-Cyanocyclopropane-1-carboxamido)-3,3-dimethylbutanoyl)-4-hydroxy-N-(3-methyl-4-(4-methylthiazol-5-yl)benzyl)pyrrolidine-2-carboxamide], on VCB protein, the Kd was 496 ± 62 nM and the IC50 came to 2260 ± 73 nM. Also, in data set [1], the chromatographic logD was 2. At human serum albumin, this compound had an unbound share (fraction unbound) at 0.5 mg/mL of 0.11.
Taken in the same sequence, the figures for `COc1cc(-c2scnc2C)ccc1CNC(=O)[C@@H]1C[C@@H](O)CN1C(=O)[C@@H](NC(=O)C1(C#N)CC1)C(C)(C)C` [Compound 3, (2S,4R)-1-((S)-2-(1-Cyanocyclopropane-1-carboxamido)-3,3-dimethylbutanoyl)-4-hydroxy-N-(2-methoxy-4-(4-methylthiazol-5-yl)benzyl)pyrrolidine-2-carboxamide] were 183 ± 22 nM, 837 ± 35 nM, 1.9 and 0.12.
For the compound `Cc1ncsc1-c1ccc(CNC(=O)[C@@H]2C[C@@H](O)CN2C(=O)[C@@H](NC(=O)C2(C#N)CC2)C(C)(C)C)c2ncccc12` [Compound 23, (2S,4R)-1-((S)-2-(1-Cyanocyclopropane-1-carboxamido)-3,3-dimethylbutanoyl)-4-hydroxy-N-((5-(4-methylthiazol-5-yl)quinolin-8-yl)methyl)pyrrolidine-2-carboxamide], at VCB protein, the Kd was 330 ± 93 nM and the IC50 came out at 1670 ± 375 nM. Also, the chromatographic logD in data set [1] was 1.7. The same compound had a fraction unbound at 0.5 mg/mL on human serum albumin of 0.12.
As for `Cc1ncsc1-c1cc(F)c(CNC(=O)[C@@H]2C[C@@H](O)CN2C(=O)[C@@H](NC(=O)C2(C#N)CC2)C(C)(C)C)cc1F` [Compound 16, (2S,4R)-1-((S)-2-(1-Cyanocyclopropane-1-carboxamido)-3,3-dimethylbutanoyl)-N-(2,5-difluoro-4-(4-methylthiazol-5-yl)benzyl)-4-hydroxypyrrolidine-2-carboxamide], at VCB protein, the Kd was 281 ± 46 nM and the IC50 came out at 1440 ± 198 nM. For the same compound, the chromatographic logD in data set [1] came to 2. For the same compound, at human serum albumin, the fraction unbound at 0.5 mg/mL is 0.12.
